Reference: ChEMBL document CHEMBL5360532, “Current scenario of quinolone hybrids with potential antibacterial activity against ESKAPE pathogens” (Eur J Med Chem, 2023)
≈ marks a conversion by molar mass, not a printed value.

Experiments:
Type in all cases: functional
Staphylococcus aureus [1] = assay: Antibacterial activity against methicillin resistant Staphylococcus aureus ATCC 33591 assessed as bacterial growth inhibition measured after 16 to 18 hrs by serial dilution method; conditions: time 16-18 hrs
Escherichia coli [2] = assay: Antibacterial activity against Escherichia coli ATCC 8739 assessed as bacterial growth inhibition by two fold microdilution assay
Klebsiella pneumoniae = assay: Antibacterial activity against Klebsiella pneumoniae assessed as bacterial growth inhibition by two fold microdilution assay
Staphylococcus aureus [3] = assay: Antibacterial activity against Staphylococcus aureus ATCC 6538P assessed as bacterial growth inhibition by two fold microdilution assay
[4] = system: Mycobacterium tuberculosis; assay: Antimycobacterial activity against Mycobacterium tuberculosis H37Rv assessed as bacterial growth inhibition by broth microdilution assay
Pseudomonas aeruginosa [5] = assay: Antibacterial activity against Pseudomonas aeruginosa ATCC 11632 assessed as bacterial growth inhibition measured after 24 to 48 hrs by agar dilution assay; conditions: time 24-48 hrs
Escherichia coli [6] = assay: Antibacterial activity against Escherichia coli ATCC 10536 assessed as bacterial growth inhibition measured after 24 to 48 hrs by agar dilution assay; conditions: time 24-48 hrs
Escherichia coli [7] = assay: Potency index, ratio of ciprofloxacin MIC to test compound MIC for antimicrobial activity against Escherichia coli assessed as bacterial growth inhibition by agar cup diffusion assay
Pseudomonas aeruginosa [8] = assay: Antibacterial activity against Pseudomonas aeruginosa assessed as bacterial growth inhibition by broth microdilution assay
Staphylococcus aureus [9] = assay: Antibacterial activity against Staphylococcus aureus assessed as bacterial growth inhibition by broth microdilution assay
Escherichia coli [10] = assay: Antibacterial activity against Escherichia coli assessed as bacterial growth inhibition by broth microdilution assay
Escherichia coli [11] = assay: Antibacterial activity against fluoroquinolone Escherichia coli assessed as bacterial growth inhibition by broth microdilution assay
Enterococcus faecalis = assay: Antibacterial activity against Enterococcus faecalis assessed as bacterial growth inhibition by broth microdilution assay
Staphylococcus aureus [12] = assay: Antibacterial activity against Staphylococcus aureus ATCC 25923 assessed as bacterial growth inhibition measured after 18 hrs by agar dilution assay
Escherichia coli [13] = assay: Antibacterial activity against Escherichia coli ATCC 25922 assessed as bacterial growth inhibition measured after 18 hrs by agar dilution assay
Staphylococcus aureus [14] = assay: Antibacterial activity against Staphylococcus aureus assessed as bacterial growth inhibition by two fold microdilution assay
Escherichia coli [15] = assay: Antibacterial activity against Escherichia coli assessed as bacterial growth inhibition by two fold microdilution assay
Escherichia coli [16] = assay: […] activity against Escherichia coli assessed as bacterial growth inhibition by broth dilution assay

SMILES: Cc1ccc(Oc2ccnc(Nc3ccc4c(=O)c(C(=O)O)cn(C5CC5)c4c3)n2)cc1C
- MIC (Staphylococcus aureus [1]): 0.38 µg/mL (≈ 0.859 µM)

SMILES: CCn1cc(C(=O)O)c(=O)c2cc(F)c(N3CCN(Cn4nc(-c5cccs5)n(-c5ccc(OC)cc5)c4=S)CC3)cc21
- MIC (Escherichia coli [2]): ≤ 0.125 µg/mL
- MIC (Klebsiella pneumoniae): ≤ 0.125 µg/mL
- MIC (Staphylococcus aureus [3]): ≤ 0.125 µg/mL

SMILES: Cc1ccc(-c2ccnc(Nc3ccc4c(=O)c(C(=O)O)cn(C5CC5)c4c3)n2)cc1
- MIC (Staphylococcus aureus [1]): 0.38 µg/mL (≈ 0.921 µM)

SMILES: CO[C@H]1/C=C/O[C@@]2(C)Oc3c(C)c(O)c4c(O)c(c(/C=N/N5CCN(C)CC5)c(O)c4c3C2=O)NC(=O)/C(C)=C\C=C\[C@H](C)[C@H](O)[C@@H](C)[C@@H](O)[C@@H](C)[C@H](OC(C)=O)[C@@H]1C [RIFAMPIN]
- MIC [4]: 1 µg/mL (≈ 1.22 µM)

SMILES: NNC(=O)c1ccncc1 [ISONIAZID]
- MIC [4]: 1.5 µg/mL (≈ 10.9 µM)

SMILES: CC1(C)S[C@@H]2[C@H](NC(=O)[C@H](N)c3ccccc3)C(=O)N2[C@H]1C(=O)O [AMPICILLIN]
- MIC (Pseudomonas aeruginosa [5]): 0.5 µg/mL (≈ 1.43 µM)
- MIC (Escherichia coli [6]): 0.5 µg/mL (≈ 1.43 µM)

SMILES: COc1cc(-n2nnnc2SCCC(=O)N2CCN(c3cc4c(cc3F)c(=O)c(C(=O)O)cn4C3CC3)CC2)cc(OC)c1OC
- Ratio (Escherichia coli [7]): 2

SMILES: Cc1ccc(-c2ccnc(Nc3ccc4c(=O)c(C(=O)O)cn(C5CC5)c4c3)n2)cc1C
- MIC (Staphylococcus aureus [1]): 0.38 µg/mL (≈ 0.891 µM)

SMILES: CCn1cc(C(=O)O)c(=O)c2cc(F)c(N3CCN(Cn4nc(-c5ccncc5)oc4=S)CC3)cc21
- MIC (Pseudomonas aeruginosa [8]): ≤ 0.125 µg/mL
- MIC (Staphylococcus aureus [9]): ≤ 0.125 µg/mL
- MIC (Escherichia coli [10]): ≤ 0.125 µg/mL

SMILES: CCCCCOc1ccc(C2C(Cl)C(=O)N2c2cc3[nH]cc(C(=O)O)c(=O)c3cc2F)cc1 (configuration not stated)
- MIC (Staphylococcus aureus [9]): 0.02 µg/mL (≈ 0.0423 µM)
- MIC (Escherichia coli [11]): 0.02 µg/mL (≈ 0.0423 µM)
- MIC (Escherichia coli [10]): 0.02 µg/mL (≈ 0.0423 µM)
- MIC (Enterococcus faecalis): 0.02 µg/mL (≈ 0.0423 µM)

SMILES: CCn1cc(C(=O)O)c(=O)c2cnc(N3CCN(Cc4cn(-c5ccccc5)nn4)CC3)nc21
- MIC (Staphylococcus aureus [12]): 0.12 µg/mL (≈ 0.261 µM)
- MIC (Escherichia coli [13]): 0.12 µg/mL (≈ 0.261 µM)

SMILES: CCn1cc(C(=O)O)c(=O)c2cc(F)c(N3CCN(Cn4nc(Cn5nc(C)n(/N=C/c6ccccc6O)c5=O)n(Cc5ccccc5)c4=S)CC3)cc21
- MIC (Staphylococcus aureus [14]): < 28 µg/mL
- MIC (Escherichia coli [15]): < 0.24 µg/mL
- MIC (Klebsiella pneumoniae): < 0.24 µg/mL

SMILES: O=C(O)c1cn(C2CC2)c2cc(N3CCN(C(=O)CCSc4nnnn4-c4ccc(F)c(F)c4F)CC3)c(F)cc2c1=O
- Ratio (Escherichia coli [7]): 2

SMILES: CCn1cc(C(=O)O)c(=O)c2cc(F)c(N3CCN(Cc4cn(-c5ccc([N+](=O)[O-])cc5)nn4)CC3)cc21
- MIC (Staphylococcus aureus [12]): 0.12 µg/mL (≈ 0.23 µM)
- MIC (Escherichia coli [13]): 0.12 µg/mL (≈ 0.23 µM)

SMILES: O=C(O)c1cn(C2CC2)c2cc(N3CCN(C(=O)CCSc4nnnn4-c4ccc(Br)cc4)CC3)c(F)cc2c1=O
- Ratio (Escherichia coli [7]): 2

SMILES: CCn1cc(C(=O)O)c(=O)c2cnc(N3CCN(Cc4cn(-c5ccc([N+](=O)[O-])cc5)nn4)CC3)nc21
- MIC (Staphylococcus aureus [12]): 0.12 µg/mL (≈ 0.237 µM)
- MIC (Escherichia coli [13]): 0.12 µg/mL (≈ 0.237 µM)

SMILES: Cc1nn(Cc2nn(CN3CCN(c4cc5c(cc4F)c(=O)c(C(=O)O)cn5C4CC4)CC3)c(=S)n2-c2ccccc2)c(=O)n1/N=C/c1ccccc1O
- MIC (Staphylococcus aureus [14]): < 28 µg/mL
- MIC (Escherichia coli [15]): < 0.24 µg/mL
- MIC (Klebsiella pneumoniae): < 0.24 µg/mL

SMILES: O=C(O)c1cn(C2CC2)c2cc(N3CCN(C(=O)CCSc4nnnn4-c4ccccc4)CC3)c(F)cc2c1=O
- Ratio (Escherichia coli [7]): 2

SMILES: O=C(O)c1cn(C2CC2)c2cc(N3CCN(C(=O)CCSc4nnnn4-c4ccc(C(F)(F)F)cc4)CC3)c(F)cc2c1=O
- Ratio (Escherichia coli [7]): 2

SMILES: CCn1cc(C(=O)O)c(=O)c2cnc(N3CCN(Cn4nc(-c5ccc(OC)cc5)n(-c5ccc(C(C)(C)C)cc5)c4=S)CC3)nc21
- MIC (Escherichia coli [16]): 0.98 µg/mL (≈ 1.5 µM)

SMILES: O=C(O)c1cn(C2CC2)c2cc(N3CCN(Cc4cn(-c5ccccc5)nn4)CC3)c(F)cc2c1=O
- MIC (Staphylococcus aureus [12]): 0.12 µg/mL (≈ 0.246 µM)
- MIC (Escherichia coli [13]): 0.12 µg/mL (≈ 0.246 µM)

SMILES: CCn1cc(C(=O)O)c(=O)c2cc(F)c(N3CCN(Cn4nc(Cn5nc(C)n(/N=C/c6ccccc6O)c5=O)n(-c5ccccc5)c4=S)CC3)cc21
- MIC (Staphylococcus aureus [14]): < 28 µg/mL
- MIC (Escherichia coli [15]): < 0.24 µg/mL
- MIC (Klebsiella pneumoniae): < 0.24 µg/mL

SMILES: CCn1nnnc1SCCC(=O)N1CCN(c2cc3c(cc2F)c(=O)c(C(=O)O)cn3C2CC2)CC1
- Ratio (Escherichia coli [7]): 2

SMILES: CCn1cc(C(=O)O)c(=O)c2cnc(N3CCNCC3)nc21 [PIPEMIDIC ACID]
- MIC (Staphylococcus aureus [12]): 19.5 µg/mL (≈ 64.3 µM)
- MIC (Escherichia coli [13]): 19.5 µg/mL (≈ 64.3 µM)

SMILES: CCn1cc(C(=O)O)c(=O)c2cc(F)c(N3CCN(Cn4nc(-c5ccco5)oc4=S)CC3)cc21
- MIC (Pseudomonas aeruginosa [8]): ≤ 0.125 µg/mL
- MIC (Staphylococcus aureus [9]): ≤ 0.125 µg/mL
- MIC (Escherichia coli [10]): ≤ 0.125 µg/mL

SMILES: C[C@@H](N)C(=O)N1CCN(c2cc3c(cc2F)c(=O)c(C(=O)N2CCOCC2)cn3C2CC2)CC1
- MIC (Escherichia coli [10]): 0.4 µg/mL (≈ 0.848 µM)
